pIC50: −log10 of the molar value.
What was measured:
U-87 MG [1] = experiment: Cytotoxicity against human U87 cells assessed as reduction in cell viability after 72 hrs by MTT assay; assay type: functional, cell-based, U-87MG ATCC
SH-SY5Y [2] = experiment: Cytotoxicity against human SH-SY5Y cells assessed as reduction in cell viability after 72 hrs by MTT assay; assay type: functional, cell-based
MCF7 [3] = experiment: Cytotoxicity against human MCF7 cells assessed as reduction in cell viability after 72 hrs by MTT assay; assay type: functional, cell-based; conditions: MCF7, 72 h
MDA-MB-231 [4] = experiment: Cytotoxicity against human MDA-MB-231 cells assessed as reduction in cell viability after 72 hrs by MTT assay; assay type: functional, cell-based; conditions: MDA-MB-231, 72 h
A549 [5] = experiment: Cytotoxicity against human A549 cells assessed as reduction in cell viability after 72 hrs by MTT assay; assay type: functional, cell-based; conditions: A549, 72 h
A-375 = experiment: Cytotoxicity against human A375 cells assessed as reduction in cell viability after 72 hrs by MTT assay; assay type: functional, cell-based; conditions: A-375, 72 h
L02 [6] = experiment: Cytotoxicity against human L02 cells assessed as reduction in cell viability after 72 hrs by MTT assay; assay type: functional, cell-based; conditions: L02, 72 h
U-87 MG [7] = experiment: Cytotoxicity against human U87 cells assessed as reduction in cell viability after 24 to 72 hrs by MTT assay; assay type: functional, cell-based, U-87MG ATCC
SH-SY5Y [8] = experiment: Cytotoxicity against human SH-SY5Y cells assessed as reduction in cell viability after 24 to 72 hrs by MTT assay; assay type: functional, cell-based
MCF7 [9] = experiment: Cytotoxicity against human MCF7 cells assessed as reduction in cell viability after 24 to 72 hrs by MTT assay; assay type: functional, cell-based
MDA-MB-231 [10] = experiment: Cytotoxicity against human MDA-MB-231 cells assessed as reduction in cell viability after 24 to 72 hrs by MTT assay; assay type: functional, cell-based
A549 [11] = experiment: Cytotoxicity against human A549 cells assessed as reduction in cell viability after 24 to 72 hrs by MTT assay; assay type: functional, cell-based
L02 [12] = experiment: Cytotoxicity against human L02 cells assessed as reduction in cell viability after 24 to 72 hrs by MTT assay; assay type: functional, cell-based

## C[C@H]1[C@@H](O)O[C@@H]2O[C@@]3(C)CC[C@H]4[C@H](C)CC[C@@H]1[C@@]24OO3 [ARTENIMOL]
U-87 MG [1]
  pIC50: < 4.30
SH-SY5Y [2]
  pIC50: < 4.30
MCF7 [3]
  pIC50: < 4.30
MDA-MB-231 [4]
  pIC50: 4.34
A549 [5]
  pIC50: 4.33
A-375
  pIC50: 4.41
L02 [6]
  pIC50: 4.47

## C[C@H]1[C@H](N2CCN(Cc3ccc(F)cc3)CC2)O[C@@H]2O[C@@]3(C)CC[C@H]4[C@H](C)CC[C@@H]1[C@@]24OO3
U-87 MG [1]
  pIC50: < 4.30
SH-SY5Y [2]
  pIC50: 4.82
MCF7 [3]
  pIC50: 5.46
MDA-MB-231 [4]
  pIC50: 4.92
A549 [5]
  pIC50: 4.44
A-375
  pIC50: 4.89
L02 [6]
  pIC50: 4.77

## C[C@H]1[C@H](N2CCN(c3ccc(F)cc3)CC2)O[C@@H]2O[C@@]3(C)CC[C@H]4[C@H](C)CC[C@@H]1[C@@]24OO3
U-87 MG [1]
  pIC50: 4.59
SH-SY5Y [2]
  pIC50: < 4.30
MCF7 [3]
  pIC50: 4.54
MDA-MB-231 [4]
  pIC50: < 4.30
A549 [5]
  pIC50: < 4.30
A-375
  pIC50: < 4.30
L02 [6]
  pIC50: 4.95

## C[C@H]1[C@H](Nc2ccc(SC(F)(F)F)cc2)O[C@@H]2O[C@@]3(C)CC[C@H]4[C@H](C)CC[C@@H]1[C@@]24OO3
U-87 MG [1]
  pIC50: 4.55
SH-SY5Y [2]
  pIC50: 4.69
MCF7 [3]
  pIC50: 5.28
MDA-MB-231 [4]
  pIC50: 4.64
A549 [5]
  pIC50: 4.38
A-375
  pIC50: 4.58
L02 [6]
  pIC50: 5.03

## C[C@H]1[C@H](N2CCN(c3ccc(C(F)(F)F)cc3)CC2)O[C@@H]2O[C@@]3(C)CC[C@H]4[C@H](C)CC[C@@H]1[C@@]24OO3
U-87 MG [1]
  pIC50: < 4.30
SH-SY5Y [2]
  pIC50: < 4.30
MCF7 [3]
  pIC50: 4.57
MDA-MB-231 [4]
  pIC50: < 4.30
A549 [5]
  pIC50: < 4.30
A-375
  pIC50: 4.39
L02 [6]
  pIC50: 4.69

## COc1cccc2c1C(=O)c1c(O)c3c(c(O)c1C2=O)C[C@@](O)(C(=O)CO)C[C@@H]3O[C@H]1C[C@H](N)[C@H](O)[C@H](C)O1 [DOXORUBICIN]
MDA-MB-231 [4]
  pIC50: 5.55
A549 [5]
  pIC50: 5.64
A-375
  pIC50: 6.40
L02 [6]
  pIC50: 6.05

## C[C@H]1[C@H](N2CCN(Cc3cccc(F)c3)CC2)O[C@@H]2O[C@@]3(C)CC[C@H]4[C@H](C)CC[C@@H]1[C@@]24OO3
U-87 MG [1]
  pIC50: < 4.30
SH-SY5Y [2]
  pIC50: < 4.30
MCF7 [3]
  pIC50: 5.17
MDA-MB-231 [4]
  pIC50: 4.48
A549 [5]
  pIC50: 4.35
A-375
  pIC50: 4.33
L02 [6]
  pIC50: 4.63

## CCOC(=O)N1CCN([C@@H]2O[C@@H]3O[C@@]4(C)CC[C@H]5[C@H](C)CC[C@@H]([C@H]2C)[C@@]35OO4)CC1
U-87 MG [7]
  pIC50: < 4.30
SH-SY5Y [8]
  pIC50: < 4.30
MCF7 [9]
  pIC50: 4.82
MDA-MB-231 [10]
  pIC50: 4.72
A549 [11]
  pIC50: 4.70
L02 [12]
  pIC50: < 4.30

## C[C@H]1[C@H](N2CCN(C(=O)Nc3ccc(F)cc3)CC2)O[C@@H]2O[C@@]3(C)CC[C@H]4[C@H](C)CC[C@@H]1[C@@]24OO3
U-87 MG [1]
  pIC50: 4.54
SH-SY5Y [2]
  pIC50: 5.30
MCF7 [3]
  pIC50: 5.26
MDA-MB-231 [4]
  pIC50: 4.96
A549 [5]
  pIC50: 4.75
A-375
  pIC50: 5.04
L02 [6]
  pIC50: 4.81

## Cn1nnc2c(C(N)=O)ncn2c1=O [TEMOZOLOMIDE]
U-87 MG [1]
  pIC50: < 4.30
SH-SY5Y [2]
  pIC50: < 4.30

## C[C@H]1[C@H](N2CCN(c3cccc(C(F)(F)F)c3)CC2)O[C@@H]2O[C@@]3(C)CC[C@H]4[C@H](C)CC[C@@H]1[C@@]24OO3
U-87 MG [1]
  pIC50: < 4.30
SH-SY5Y [2]
  pIC50: 4.95
MCF7 [3]
  pIC50: 5.12
MDA-MB-231 [4]
  pIC50: 4.90
A549 [5]
  pIC50: 4.89
A-375
  pIC50: 4.70
L02 [6]
  pIC50: 5.04

## C[C@@H]1CC[C@H]2[C@@H](C)C(=O)O[C@@H]3O[C@@]4(C)CC[C@@H]1[C@]32OO4 [ARTEMISININ]
U-87 MG [1]
  pIC50: < 4.30
SH-SY5Y [2]
  pIC50: < 4.30
MCF7 [3]
  pIC50: < 4.30
MDA-MB-231 [4]
  pIC50: < 4.30
A549 [5]
  pIC50: < 4.30
A-375
  pIC50: < 4.30
L02 [6]
  pIC50: < 4.30

## C[C@H]1[C@H](NCc2ccc(OC(F)(F)F)cc2)O[C@@H]2O[C@@]3(C)CC[C@H]4[C@H](C)CC[C@@H]1[C@@]24OO3
U-87 MG [1]
  pIC50: 4.75
SH-SY5Y [2]
  pIC50: 5.30
MCF7 [3]
  pIC50: 4.99
MDA-MB-231 [4]
  pIC50: 4.66
A549 [5]
  pIC50: 4.75
A-375
  pIC50: 4.96
L02 [6]
  pIC50: 4.45

## C[C@H]1[C@H](N2CCN(C(=O)Nc3ccc(C(F)(F)F)cc3)CC2)O[C@@H]2O[C@@]3(C)CC[C@H]4[C@H](C)CC[C@@H]1[C@@]24OO3
U-87 MG [1]
  pIC50: 4.82
SH-SY5Y [2]
  pIC50: 5.49
MCF7 [3]
  pIC50: 5.57
MDA-MB-231 [4]
  pIC50: 5.24
A549 [5]
  pIC50: 4.68
A-375
  pIC50: 4.82
L02 [6]
  pIC50: 5.40

— ChEMBL document CHEMBL4118205, “Design, synthesis and biological evaluation of artemisinin derivatives containing fluorine atoms as anticancer agents” (Bioorg Med Chem Lett, 2018)
